This passage reports MIC99 and Selectivity index results from ChEMBL document CHEMBL1146913, “Symmetrical and unsymmetrical analogues of isoxyl; active agents against Mycobacterium tuberculosis” (2006).

≈ marks a conversion by molar mass, not a printed value.

Test [1] has as its system Mycobacterium tuberculosis. Nature of the test: Antibacterial activity against Mycobacterium tuberculosis H37Rv. It counts as functional.
The test system of another test is Vero. Briefly: Selectivity index, IC50 against Vero cells/MIC against Mycobacterium. The format is functional.

For orientation: MIC99 means an inhibitory concentration at the 99% level, which refers to growth in some studies and to a panel of isolates in others. A high value points to lower susceptibility. In the case of `CCCCOc1ccc(NC(=S)Nc2ccc(SCCC)cc2)cc1`, the MIC99 in test [1] came to 0.2 µg/mL (≈ 0.534 µM). Besides, the Selectivity index in the test with Vero amounted to 45.5.

In the case of `CCCCOc1ccc(NC(=S)Nc2ccc(CCCC)cc2)cc1`, the MIC99 in test [1] is less than 0.1 µg/mL. Moreover, the Selectivity index with Vero worked out at 87.

In test [1], `CCCCOc1ccc(NC(=S)Nc2ccc(SCC(C)C)cc2)cc1` gave an MIC99 of more than 6.25 µg/mL.

Take `CCCCOc1ccc(NC(=S)Nc2ccc(Cc3ccccc3)cc2)cc1`: the MIC99 in test [1] is 0.39 µg/mL (≈ 0.999 µM). In the test on Vero, this compound yielded a Selectivity index of 22.1.

With `CC(C)CSc1ccc(NC(=S)Nc2ccc(SCC(C)C)cc2)cc1`, in test [1], the MIC99 was 0.78 µg/mL (≈ 1.93 µM). In the test with Vero, the Selectivity index is 12.4.

Consider `CCCCOc1ccc(NC(=S)Nc2ccc(OCCC(C)C)cc2)cc1`, for which the MIC99 in test [1] was less than 0.1 µg/mL. Also, the Selectivity index in the test with Vero was 89.

In turn, `CCCOc1ccc(NC(=S)Nc2ccc(OCCC)cc2)cc1` had an MIC99 in test [1] of 0.2 µg/mL (≈ 0.581 µM). The compound also yielded a Selectivity index in the test with Vero of 44.

In test [1], `CCCSc1ccc(NC(=S)Nc2ccc(Cc3ccccc3)cc2)cc1` displayed an MIC99 of 1.56 µg/mL (≈ 3.97 µM). The compound further had a Selectivity index in the test on Vero of 5.28.

`CC(C)CCOc1ccc(NC(=S)Nc2ccc(Cc3ccccc3)cc2)cc1` had an MIC99 in test [1] of 0.2 µg/mL (≈ 0.494 µM). Further, the Selectivity index in the test with Vero is given as 48.

`CCCCOc1ccc(NC(=S)Nc2ccc(OCC(C)C)cc2)cc1` showed an MIC99 in test [1] of 0.1 µg/mL (≈ 0.268 µM). This compound came in with a Selectivity index in the test on Vero of 79.9.

In turn, `CC(C)CCOc1ccc(NC(=S)Nc2ccc(OCC(C)C)cc2)cc1` registered an MIC99 in test [1] of 0.39 µg/mL (≈ 1.01 µM). This compound returned a Selectivity index in the test with Vero of 72.

In test [1], `CCCCc1ccc(NC(=S)Nc2ccc(OCCC)cc2)cc1` showed an MIC99 of less than 0.1 µg/mL. The compound also displayed a Selectivity index with Vero of 100.

In turn, `CC(C)CCOc1ccc(NC(=S)Nc2ccc(OCCC(C)C)cc2)cc1` [TIOCARLIDE] gave an MIC99 in test [1] of 2 µg/mL (≈ 4.99 µM). Further, the Selectivity index with Vero was found to be 82.
